Results: US7501113B2, “Aerosol formulations and aerosol delivery of buprenorphine” (priority 2003, dated 2009)
“And” between values parts separate entries of the source, which are not always exact repeats. Equal values may be shown once. Read-outs that look alike come from different tables or passages of the source.

Columns and labels:
[1] = Aerosol particle size determination, 10-stage MOUDI at 30 L/min with USP throat; format: physicochemical; settings: for MMAD / Material Balance / Wall Losses / Throat Deposition / Throat Depositions: 5 mg/sec
Experimental: Aerosol particle size was determined using the 10-stage MOUDI operated at 30 L/min. The sample foils were placed in beakers, 10 mL of sample solvent was added, and the beakers swirled thoroughly. For the USP throat, 10 mL of sample solvent was added and shaken thoroughly. Wall losses were assessed by washing the MOUDI walls with a Kimwipe dipped in sample solvent. The same 10 mL of mobile phase was used to wash the walls of all the stages. The collected samples were analyzed.
(§1) Aerosol particle size was determined using the 10-stage MOUDI operated at 30 L/min. […] For the USP throat, 5 mL of sample solvent was added and shaken thoroughly. Wall losses were assessed by washing the MOUDI walls with a Kimwipe dipped in sample solvent. The same sample solvent was used to wash the walls of all the stages. The collected samples were analyzed using the assay method.
Aerosol particle size was determined using the 10-stage MOUDI operated at 30 L/min. For MOUDI runs 1-4, the sample foils were placed in beakers, 5 mL of sample solvent was added, and the beakers swirled thoroughly. For the USP throat, 5 mL of sample solvent was added and shaken thoroughly. Wall losses were assessed by washing the MOUDI walls with a Kimwipe dipped in sample solvent. The same 5 mL of sample solvent was used to wash the walls of all the stages. The collected samples were analyzed using the assay method. For MOUDI runs 5-9, the procedure was the same as above except distilled deionized water was used in place of the sample solvent. This was done to allow for simultaneous PG particle size analysis. Two actuations were used for all MOUDI runs with the exception of MOUDI runs 1 and 7.
as §1, with “10” for “5”
as §1

[2] = Emitted dose and fine particle fraction; format: physicochemical; settings: formulation % w/v: buprenorphine 0.2, buspirone 2.0, cyclobenzaprine 2.0, triazolam 0.1, zolpidem 0.2; for Avg. Emitted Dose per Actuation: 10 second actuations, average of n=3-5 runs; for Avg. FPF: fine particle fraction = percent of total dose collected less than 5.6 microns, n=3-5 runs
[3] = 5 mg/sec
Experimental: Sham determinations were performed for each set of experiments to determine an “expected” amount of active per capillary aerosol generator (CAG) activation. This was performed by running the equipment at a target resistance of 0.2 ohms, which pumped out the solution of buspirone in PG as a liquid instead of an aerosol. The result was collected on a Kimwipe which was placed into sample solvent and sonicated. This process was performed in triplicate. Two solution concentrations of about 0.5% and about 2% of buspirone in PG were prepared.
(§2) Dose capture determinations were conducted (Table 1). For dose capture runs 1-6, the device was actuated once, the aerosol collected in acidified water, diluted to 40 mL. Runs 7-12 were performed as above, except distilled de-ionized water was used instead of acidified water. For runs 13-33, the device was actuated 4 times, the aerosol was collected in 8 mL of sample solvent, and analyzed for buspirone and degradation products using the “stability indicating” assay. Intact buspirone was calculated. The extent of degradation was evaluated by assuming that the degradation products had similar extinction coefficients as the parent at the wavelength of interest.
The result was collected on a Kimwipe, placed into sample solvent and sonicated. This process was performed in triplicate and was analyzed with other analytical samples.
(§3) Dose capture determinations were conducted.
Sham determinations were performed for each set of experiments to determine an “expected” amount of active per CAG activation. […] This was collected on a Kimwipe which was placed into sample solvent and sonicated. The process was performed in triplicate and was analyzed with other analytical samples.
(§4) Dose capture determinations were conducted (Table 6). For dose capture runs 1-3, the device was actuated once, the aerosol collected in 10 mL of sample solvent and analyzed using the “stability indicating” method. Runs 4-9 were performed as above except the device was actuated twice and collected in 10 mL of sample solvent. […] The extent of degradation was evaluated by assuming that the degradation products had similar extinction coefficients as the parent at the wavelength of interest.
Sham determinations were performed for each set of experiments to determine an “expected” amount of active per CAG activation. […] This was collected on a Kimwipe which was placed into sample solvent and sonicated. This process was performed in triplicate and was analyzed with other analytical samples.
(§5) Dose capture determinations were conducted. […] The extent of degradation was evaluated by assuming that the degradation products had similar extinction coefficients as the parent at the wavelength of interest.
Sham determinations were performed for each set of experiments to determine an “expected” amount of active per CAG activation. This was performed by running the equipment at a target resistance of 0.2 ohms. […] This was collected on a Kimwipe which was placed into sample solvent and sonicated. This process was performed in triplicate and was analyzed with other analytical samples.

[4] = 2 % in PG
Experimental: (§6) Buspirone was dissolved in acidic and basic solutions and heated to 50 degrees Celsius for 1 hour to promote acid and base catalyzed hydrolysis. Buspirone was also subjected to peroxide with heating to 50 degrees Celsius for 1 hour to promote oxidation. As a final stability check, solid buspirone was subjected to heating with a differential scanning calorimeter. Conditions were optimized to produce thermal degradation products by heating to 350 degrees Celsius.
as §2
(§7) After evaluation of the data, it was determined that buspirone should be thermally stressed with a DSC to produce a degradation profile thought to be more representative of buspirone degradation after aerosolization via the CAG. In doing so, thermal degradation products were produced under the conditions stated above. This provided an indication of retention times for potential degradation products of buspirone after aerosolization using the CAG.
(§8) Buprenorphine was subjected to heating with a differential scanning calorimeter.
as §3
(§9) Conditions were optimized to produce thermal degradation products by heating to 350 degrees Celsius.
as §4
(§10) Thermal degradation products were produced under the conditions stated above.
(§11) Conditions were optimized to produce thermal degradation products by heating to 300 degrees Celsius.
as §5

[5] = Degradation determination after aerosolization (stability indicating assay); settings: zolpidem 0.2% in PG, target resistance 0.600 ohms, runs 5-9
Experimental: as §6, §2, §7, §8, §3, §9, §4, §10, §11, §5

[6] = triazolam 0.1% in PG, target resistance 0.590 ohms
[7] = triazolam 0.1% in PG, target resistance 0.595 ohms
[8] = triazolam 0.1% in PG, target resistance 0.600 ohms
[9] = triazolam 0.1% in PG, target resistance 0.605 ohms, runs 5-9
[10] = buspirone 0.5% in PG, target resistance 0.600 ohms
[11] = buspirone 0.5% in PG, target resistance 0.610 ohms, monohydrochloride
[12] = buspirone 2.0% in PG, target resistance 0.590 ohms
[13] = buspirone 2.0% in PG, target resistance 0.595 ohms
[14] = buspirone 2.0% in PG, target resistance 0.600 ohms, monohydrochloride
[15] = buspirone 2.0% in PG, target resistance 0.605 ohms, runs 11-15, listed as buspirone, monohydrochloride
[16] = buspirone 2.0% in PG, target resistance 0.605 ohms, runs 11-15, monohydrochloride
[17] = buspirone 2.0% in PG, target resistance 0.610 ohms
[18] = cyclobenzaprine 2.0% in PG, target resistance 0.595 ohms, 1 actuation
[19] = zolpidem 0.2% in PG, target resistance 0.590 ohms, 1 actuation
[20] = zolpidem 0.2% in PG, target resistance 0.600 ohms, 1 actuation

Cc1nnc2n1-c1ccc(Cl)cc1C(c1ccccc1Cl)=NC2 [Triazolam, 8-chloro-6-(2-chlorophenyl)-1-methyl-4H-[1,2,4]triazolo[4,3-a][1,4]benzodiazepine]
MMAD [1, 6]: 0.847 microns and 0.642^3 microns | Material Balance [1, 6]: 74.08% and 108.22^3% | Wall Losses [1, 6]: 15.51^3% | Throat Deposition ([1]; triazolam 0.1% in PG, target resistance 0.590 ohms, approximately 70 J, runs 1 and 2): 33.14% and 39.28^3% | Throat Deposition ([1]; triazolam 0.1% in PG, target resistance 0.590 ohms, approximately 70 J, runs 1 and 2, listed as triazolam): greater than 30% | MMAD [1, 7]: 0.414^3 microns | Material Balance [1, 7]: 98.50^3% | Throat Deposition [1, 7]: 3.66^3% | Wall Losses [1, 7]: 6.69^3% | MMAD [1, 8]: 0.378^3 microns | Material Balance [1, 8]: 104.22^3% | Throat Deposition [1, 8]: 2.96^3% | Wall Losses [1, 8]: 11.04^3% | MMAD [1, 9]: 0.511^3 microns and 0.431^3 microns and 0.483 microns and 0.444^3 microns and 0.446^3 microns | Material Balance [1, 9]: 102.10^3% and 96.32^3% and 107.02% and 91.60^3% and 101.09^3% | Throat Deposition [1, 9]: 2.43^3% and 1.35^3% and 2.87% and 2.47^3% and 1.97^3% | Throat Deposition ([1]; triazolam 0.1% in PG, target resistance 0.605 ohms, runs 5-9, listed as triazolam): less than 3% | average MMAD ([1]; triazolam 0.1% in PG, target resistance 0.605 ohms, approximately 90 J, runs 5-9): approximately 0.46 microns | Avg. Emitted Dose per Actuation [2]: 46.46 µg | Avg. FPF [2]: 86.16 % of Emitted | Dose Capture ([3]; triazolam 0.1% in PG, target resistance 0.605 ohms, about 90 J, runs 10-14, mean of 15): 90^2% | Dose Capture ([3]; triazolam 0.1% in PG, target resistance 0.605 ohms, about 90 J, runs 10-14, mean of 15, listed as triazolam): 90% | Dose Capture ([3]; triazolam 0.1% in PG, target resistance 0.610 ohms): 86%

Cl.O=C1CC2(CCCC2)CC(=O)N1CCCCN1CCN(c2ncccn2)CC1 [Buspirone, 8-[4-[4-(2-pyrimidinyl)-1-piperazinyl]butyl]-8-azaspiro[4,5]decane-7,9-dione monohydrochloride]
MMAD [1, 10]: 0.31 microns | Material Balance [1, 10]: 100% | Throat Deposition [1, 10]: 7% | Wall Losses [1, 10]: 2% | Wall Losses ([1]; buspirone 0.5% in PG, target resistance 0.610 ohms): 4% | MMAD [1, 11]: 0.30 microns and 0.47 microns and 0.32 microns and 0.29 microns | Throat Deposition [1, 11]: 10% and 3% and 6% and 4% | recovered buspirone found on the throat ([1]; buspirone 2.0% in PG, energies approximately 77 J, runs 8 and 10): greater than 40% | MMAD [1, 12]: 0.54 microns | Material Balance [1, 12]: 11% | Throat Deposition [1, 12]: 44% | Wall Losses [1, 12]: 6% | MMAD [1, 13]: 0.46 microns | Material Balance [1, 13]: 91% | Throat Deposition [1, 13]: 44% | Wall Losses [1, 13]: 1% | MMAD [1, 14]: 0.30 microns and 0.48 microns | Material Balance [1, 14]: 100% and 98% | Wall Losses [1, 14]: 2% and 4% | MMAD [1, 15]: approximately 0.30 microns | Material Balance [1, 15]: exceeded 100% | Throat Deposition [1, 15]: less than 5% | MMAD [1, 16]: 0.31 microns and 0.30 microns and 0.29 microns and 0.32 microns | Material Balance [1, 16]: 105% and 108% and 102% and 107% and 111% | Throat Deposition [1, 16]: 4% and 1% and 3% and 2% | Wall Losses [1, 16]: 4% and 3% and 9% | MMAD [1, 17]: 0.30 microns | Material Balance [1, 17]: 98% | Throat Deposition [1, 17]: 14% | Wall Losses [1, 17]: 1% | Avg. Emitted Dose per Actuation [2]: 1010.44 µg | Avg. FPF [2]: 91.60 % of Emitted | Dose Capture ([3]; buspirone 2.0% in PG, target resistance 0.595 ohms, runs 13-15, mean): 102^1% | Dose Capture ([3]; buspirone 2.0% in PG, target resistance 0.600 ohms, runs 24-28, mean): 105^3% | Dose Capture ([3]; buspirone 2.0% in PG, target resistance 0.605 ohms, about 90 J, runs 29-33, mean, listed as buspirone, monohydrochloride): 104% | Dose Capture ([3]; buspirone 2.0% in PG, target resistance 0.605 ohms, about 90 J, runs 29-33, mean, monohydrochloride): 104^3% | Dose Capture ([3]; buspirone 2.0% in PG, target resistance 5.90 ohms, runs 7-9, mean of 3): 9^1% | average degradation of the active [4]: 0.25% | major degradation peak, share of degradation observed [4]: approximately 0.09% | other 8 degradation peaks, each [4]: approximately 0.02%

CN(C)CCC=C1c2ccccc2C=Cc2ccccc21 [Cyclobenzaprine, 3-(5H-Dibenzo[a,d]cyclohepten-5-ylidene)-N,N-dimethyl-1-propanamine]
MMAD [1, 18]: 0.330 microns and 0.329 microns and 0.343 microns and 0.333 microns and 0.336 microns and 0.256^2 microns | Material Balance [1, 18]: 92.04% and 91.03% and 93.48% and 99.10% and 93.99% and 61.98^2% | Throat Depositions [1, 18]: 3.45% and 3.39% and 5.55% and 2.59% and 3.09% and 4.89^2% | Wall Losses [1, 18]: 0.81% and 1.12% and 2.33% and 1.98% and 2.26% and 1.99^2% | Throat Depositions ([1]; cyclobenzaprine 2.0% in PG, target resistance 0.595 ohms, 1 actuation, listed as cyclobenzaprine): less than 4% | average MMAD ([1]; cyclobenzaprine 2.0% in PG, target resistance 0.595 ohms, approximately 71 J, runs 1-6 excluding run 3): approximately 0.33 microns | Avg. Emitted Dose per Actuation [2]: 836.16 µg | Avg. FPF [2]: 94.35 % of Emitted | Dose Capture ([3]; cyclobenzaprine 2.0% in PG, target resistance 0.595 ohms, about 73 J, 1 actuation, listed as cyclobenzaprine): > 95% | Dose Capture ([3]; cyclobenzaprine 2.0% in PG, target resistance 0.610 ohms, 1 actuation): 109.93% | average degradation [4]: less than 0.3%

Cc1ccc(-c2nc3ccc(C)cn3c2CC(=O)N(C)C)cc1 [Zolpidem, N,N,6-Trimethyl-2-(4-methylphenyl)-imidazo[1,2-a]pyridine-3-acetamide]
MMAD [1, 19]: 0.464 microns | Material Balance [1, 19]: 64.51% | Throat Deposition [1, 19]: 5.36% | Wall Losses [1, 19]: 1.68% | MMAD [1, 20]: 0.481 microns and 0.459 microns and 0.420 microns and 0.421 microns and 0.404 microns and 0.431 microns | Material Balance [1, 20]: 100.06% and 90.77% and 97.74% and 95.83% and 101.56% and 93.04% | Throat Deposition [1, 20]: 3.97% and 0.12% and 0.62% and 1.27% and 0.21% and 1.95% | Wall Losses [1, 20]: 6.18% and 2.67% and 3.55% and 3.85% and 0.90% and 1.35% | average MMAD ([1]; zolpidem 0.2% in PG, target resistance 0.600 ohms, approximately 75 J, runs 5-8): approximately 0.45 microns | Avg. Emitted Dose per Actuation [2]: 92.55 µg | Avg. FPF [2]: 93.25 % of Emitted | Percent Degradation [5]: 0.26% and 0.02% and 0.00% and 0.03% and 0.16% | average degradation [5]: less than 0.1%
